From ChEMBL document CHEMBL3045658, “Design, synthesis, antiviral activity, and SARs of 14-aminophenanthroindolizidines” (2012)

Tests used:
Format in all cases: functional
[1] = test system: Tobacco mosaic virus; assay: Antiviral activity against Tobacco mosaic virus (TMV) inoculated in 5-6 growth stage leaf assessed as inhibition effect at 100 ug/mL at 25 degC after 72 hr by half-leaf method
[2] = test system: Tobacco mosaic virus; assay: In vivo antiviral activity against Tobacco mosaic virus (TMV) inoculated left side of Nicotiana. tabacum L. leaves assessed as inactivation effect at 100 ug/mL co-incubated with virus measured after 3 to 4 days
[3] = test system: Tobacco mosaic virus; assay: In vivo antiviral activity against Tobacco mosaic virus (TMV) inoculated right side of Nicotiana. tabacum L. leaves assessed as protection effect at 100 ug/mL preincubated 12 hr before viral challenge measured after 3 to 4 days
[4] = test system: Tobacco mosaic virus; assay: In vivo antiviral activity against Tobacco mosaic virus (TMV) pre-inoculated Nicotiana. tabacum L. leaves assessed as curative effect at 100 ug/mL measured after 3 to 4 days
[5] = test system: Tobacco mosaic virus; assay: In vivo antiviral activity against Tobacco mosaic virus (TMV) inoculated right side of Nicotiana. tabacum L. leaves assessed as protection effect at 500 ug/mL preincubated 12 hr before viral challenge measured after 3 to 4 days
[6] = test system: Tobacco mosaic virus; assay: In vivo antiviral activity against Tobacco mosaic virus (TMV) inoculated left side of Nicotiana. tabacum L. leaves assessed as inactivation effect at 500 ug/mL co-incubated with virus measured after 3 to 4 days
[7] = test system: Tobacco mosaic virus; assay: In vivo antiviral activity against Tobacco mosaic virus (TMV) pre-inoculated Nicotiana. tabacum L. leaves assessed as curative effect at 500 ug/mL measured after 3 to 4 days
[8] = test system: Tobacco mosaic virus; assay: Antiviral activity against Tobacco mosaic virus (TMV) inoculated in 5-6 growth stage leaf assessed as inhibition effect at 500 ug/mL at 25 degC after 72 hr by half-leaf method
[9] = test system: Tobacco mosaic virus; assay: Antiviral activity against Tobacco mosaic virus (TMV) assessed as inhibition effect at 500 ug/mL
[10] = test system: Tobacco mosaic virus; assay: Antiviral activity against Tobacco mosaic virus (TMV) assessed as inhibition effect at 1 ug/mL

Row | Structure (SMILES) | inhibition at 100 µg/mL [1] [%] | inhibition in vivo at 100 µg/mL [2] [%] | inhibition in vivo at 100 µg/mL [3] [%] | inhibition in vivo at 100 µg/mL [4] [%] | inhibition in vivo at 500 µg/mL [5] [%] | inhibition in vivo at 500 µg/mL [6] [%] | inhibition in vivo at 500 µg/mL [7] [%] | inhibition at 500 µg/mL [8] [%] | inhibition at 500 µg/mL [9] [%] | inhibition at 1 µg/mL [10] [%]
1 | CCCCN[C@H]1c2c(c3cc(OC)c(OC)cc3c3cc(OC)ccc23)CN2C(=O)CC[C@H]12 | 20.4 | 19.8 | 17.6 | 14.3 | 46.8 | 43.3 | 36.2 | 44.1 | – | –
2 | CC(=O)N1CN(C(C)=O)C(=O)NC1=O | – | – | – | – | – | – | – | – | 50 | –
3 | CCCCN[C@@H]1c2c(c3cc(OC)c(OC)cc3c3cc(OC)ccc23)CN2C(=O)CC[C@@H]12 | 20 | 27.6 | 28.6 | 24.3 | 54.8 | 50 | 52.5 | 45.7 | – | –
4 | CCCCN[C@@H]1c2c(c3cc(OC)c(OC)cc3c3cc(OC)ccc23)CN2CCC[C@@H]12 | 41.2 | 32.6 | 36.8 | 30.4 | 69.5 | 64.2 | 66.6 | 72.3 | – | –
5 | COc1cc2c3c(c4cc(OC)c(OC)cc4c2cc1OC)[C@H](N)[C@@H]1CCCN1C3 | 0 | 11.2 | 7.3 | 0 | 18.4 | 17.6 | 15.5 | 12.9 | – | –
6 | COc1cc2c3c(c4cc(OC)c(OC)cc4c2cc1OC)CN1CCCC1C3 (racemic) [(+/-)-TYLOPHORINE] | 27.6 | 33.3 | 31.5 | 30.7 | 56.6 | 46.5 | 52 | 51.8 | – | –
7 | COc1ccc2c3c(c4cc(OC)c(OC)cc4c2c1)[C@H](NC(C)=O)[C@@H]1CCCN1C3 | 55 | 40.4 | 55.3 | 50.8 | 72.7 | 72.2 | 69.6 | 75.1 | – | –
8 | COc1ccc2c3c(c4cc(OC)c(OC)cc4c2c1)C[C@H]1CCCN1C3 [(-)-ANTOFINE] | – | – | – | – | – | – | – | – | – | 63
9 | O=C1NCNC(=O)N1 | – | – | – | – | – | – | – | – | 50 | –
10 | CCCCN[C@H]1c2c(c3cc(OC)c(OC)cc3c3cc(OC)ccc23)CN2C(=O)CC[C@@H]12 | 30 | 25.6 | 26.2 | 20.3 | 50.3 | 47.2 | 47.5 | 52.5 | – | –
11 | COc1ccc2c3c(c4cc(OC)c(OC)cc4c2c1)[C@H](NC(=O)C(C)(C)C)[C@@H]1CCCN1C3 | 28.7 | 23.6 | 24.7 | 31.4 | 52.6 | 37.2 | 45.6 | 48.3 | – | –
12 | CNCC(=O)N[C@@H](CO)C(=O)N[C@H]1[C@H](O)[C@@H](O)[C@H](n2ccc(N)nc2=O)O[C@@H]1C(N)=O [NINGNANMYCIN] | 23.9 | 37.7 | 25.2 | 18.9 | 66.6 | 68.5 | 56 | 70.2 | – | –
13 | CCCCN[C@H]1c2c(c3cc(OC)c(OC)cc3c3cc(OC)ccc23)CN2CCC[C@@H]12 | 28.4 | 30 | 34.9 | 25.9 | 65.5 | 58.9 | 60.2 | 62.3 | – | –
14 | CCCCN[C@@H]1c2c(c3cc(OC)c(OC)cc3c3cc(OC)ccc23)CN2CCC[C@H]12 | 24.3 | 23.7 | 27.4 | 20.5 | 57.6 | 53.5 | 58.2 | 47.6 | – | –
15 | COc1cc2c3c(c4cc(OC)c(OC)cc4c2cc1OC)[C@H](NC(=O)C(C)(C)C)[C@@H]1CCCN1C3 | 23.1 | 16.9 | 22 | 26.3 | 38.9 | 28.5 | 38.5 | 42.4 | – | –
16 | COc1ccc2c3c(c4cc(OC)c(OC)cc4c2c1)CN1CCC[C@H]1[C@H]3N | 45 | 32.8 | 38.9 | 48.2 | 71.6 | 70.3 | 68 | 72.4 | – | –
17 | COc1ccc2c3c(c4cc(OC)c(OC)cc4c2c1)[C@H](N)[C@@H]1CCCN1C3 | 32.5 | 32.1 | 30.1 | 29.6 | 44.4 | 41.9 | 42.3 | 48.2 | – | –
18 | COc1ccc2c3c(c4cc(OC)c(OC)cc4c2c1)CN1CCC[C@H]1[C@H]3NC(C)=O | 7.4 | 16.7 | 15.3 | 0 | 28.6 | 38.1 | 25.2 | 23.5 | – | –
19 | CCCCN[C@H]1c2c(c3cc(OC)c(OC)cc3c3cc(OC)ccc23)CN2CCC[C@H]12 | 19.9 | 15.2 | 20 | 16.7 | 54.2 | 42.3 | 50.2 | 51.4 | – | –
20 | COc1ccc2c3c(c4cc(OC)c(OC)cc4c2c1)CN1CCC[C@H]1[C@H]3NC(=O)C(C)(C)C | 30 | 15.4 | 23.6 | 27.7 | 43.1 | 31.9 | 45 | 49.1 | – | –
21 | NC(=O)c1ncn([C@@H]2O[C@H](CO)[C@@H](O)[C@H]2O)n1 [RIBAVIRIN] | 19.6 | 9.8 | 7.5 | 8.2 | 38.9 | 33.8 | 36.7 | 41 | – | –
22 | CCCCN[C@@H]1c2c(c3cc(OC)c(OC)cc3c3cc(OC)ccc23)CN2C(=O)CC[C@H]12 | 17.5 | 25.4 | 20.5 | 23.6 | 48.2 | 49.4 | 41.7 | 38.2 | – | –
23 | COc1cc2c3c(c4cc(OC)c(OC)cc4c2cc1OC)[C@H](NC(C)=O)[C@@H]1CCCN1C3 | 21.1 | 31.1 | 29.3 | 25.3 | 41.5 | 46.4 | 37.4 | 34.7 | – | –
24 | COc1cc2c3c(c4ccc(O)cc4c2cc1OC)CN1CCC[C@@H]1C3 | – | – | – | – | – | – | – | – | – | 70
